Reference: the supplement of paper PMC11061612

Columns and labels:
Assay in all cases: Bliss excess, mean over the matrix (fraction); higher = more synergy
[1] = tested on: KE-37 (T-Lymphoblastic Leukemia)
In short: (§1)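 Cell lines in DMEM/F12 or RPMI with 10% FBS were plated in 1536-well plates, held 24 hours at 37°C, 5% CO2, then given two-drug dose matrices for 72 hours (DMSO typically 0.2%). Viability was read by CellTiter-Glo 2.0 luminescence and scaled as inhibition from 0 (vehicle wells) to 1 (blank wells). Combination Emax is the second-highest inhibition in the matrix; Bliss excess is observed combination effect minus expected EA + EB − EA·EB, EA and EB being single-agent effects.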

SF268 (Low Grade Glioma) = tested on: SF268 (Low Grade Glioma)
In short: as §1

[2] = tested on: CAL-62 (Thyroid Gland Carcinoma)
In short: as §1

[3] = tested on: SHP-77 (Small Cell Lung Carcinoma)
In short: as §1

[4] = tested on: OPM-2 (Plasma Cell Myeloma)
In short: as §1

[5] = tested on: PC-3_[JPC-3] (Lung Adenocarcinoma)
In short: as §1

[6] = tested on: FADU (Head and Neck Carcinoma)
In short: as §1

[7] = tested on: REH (B-Lymphoblastic Leukemia)
In short: as §1

[8] = tested on: L-1236 (Hodgkin's Lymphoma)
In short: as §1

[9] = tested on: SK-PN-DW (Other Solid Carcinomas)
In short: as §1

[10] = tested on: NCI-H446 (Small Cell Lung Carcinoma)
In short: as §1

A2058 (Melanoma) = tested on: A2058 (Melanoma)
In short: as §1

[11] = tested on: LXF-289 (Lung Adenocarcinoma)
In short: as §1

[12] = tested on: LK-2 (Squamous Cell Lung Carcinoma)
In short: as §1

[13] = tested on: PSN1 (Pancreatic Carcinoma)
In short: as §1

[14] = tested on: TE-8 (Esophageal Squamous Cell Carcinoma)
In short: as §1

WM278 (Melanoma) = tested on: WM278 (Melanoma)
In short: as §1

WM793B (Melanoma) = tested on: WM793B (Melanoma)
In short: as §1

[15] = tested on: HCT-15 (Colorectal Carcinoma)
In short: as §1

[16] = tested on: OVMIU (Ovarian Carcinoma)
In short: as §1

Structure (SMILES): NC1(C(=O)N[C@@H](CCO)c2ccc(Cl)cc2)CCN(c2ncnc3[nH]ccc23)CC1 [Capivasertib] + CC(=O)c1c(C)c2cnc(Nc3ccc(N4CCNCC4)cn3)nc2n(C2CCCC2)c1=O [Palbociclib] (first compound max 10 µM, 7x7, partner max 10 µM)
- Bliss excess [1]: 0.0024
- Bliss excess (SF268 (Low Grade Glioma)): -0.055
- Bliss excess [2]: 0.0169
- Bliss excess [3]: -0.142
- Bliss excess [4]: 0.0472
- Bliss excess [5]: 0.002
- Bliss excess [6]: -0.0259
- Bliss excess [7]: 0.0022
- Bliss excess [8]: -0.0829
- Bliss excess [9]: -0.0603
- Bliss excess [10]: -0.03
- Bliss excess (A2058 (Melanoma)): -0.0001
- Bliss excess [11]: 0.0199
- Bliss excess [12]: 0.0401
- Bliss excess [13]: 0.0408
- Bliss excess [14]: -0.0254
- Bliss excess (WM278 (Melanoma)): -0.0217
- Bliss excess (WM793B (Melanoma)): -0.0375
- Bliss excess [15]: 0.0152
- Bliss excess [16]: -0.0168

Structure (SMILES): NC1(C(=O)N[C@@H](CCO)c2ccc(Cl)cc2)CCN(c2ncnc3[nH]ccc23)CC1 [Capivasertib] + CC(C)n1c(=O)n(C)c2cnc3cc(F)c(-c4ccc(OCCCN5CCCCC5)nc4)cc3c21 [AZD1390] (first compound max 10 µM, 7x7, partner max 0.3 µM)
- Bliss excess [1]: -0.0392
- Bliss excess (SF268 (Low Grade Glioma)): -0.0398
- Bliss excess [2]: -0.0389
- Bliss excess [3]: -0.0178
- Bliss excess [4]: -0.0346
- Bliss excess [5]: -0.0982
- Bliss excess [6]: -0.0562
- Bliss excess [7]: -0.135
- Bliss excess [8]: 0.0156
- Bliss excess [9]: -0.0892
- Bliss excess [10]: -0.0866
- Bliss excess (A2058 (Melanoma)): -0.0336
- Bliss excess [11]: -0.0825
- Bliss excess [12]: -0.0165
- Bliss excess [13]: -0.0422
- Bliss excess [14]: -0.0571
- Bliss excess (WM278 (Melanoma)): -0.0671
- Bliss excess (WM793B (Melanoma)): -0.0826
- Bliss excess [15]: -0.036
- Bliss excess [16]: -0.0592

Structure (SMILES): NC1(C(=O)N[C@@H](CCO)c2ccc(Cl)cc2)CCN(c2ncnc3[nH]ccc23)CC1 [Capivasertib] + CCN(CCO)CCCOc1ccc2c(Nc3cc(CC(=O)Nc4cccc(F)c4)[nH]n3)ncnc2c1 [AZD2811] (first compound max 10 µM, 7x7, partner max 1 µM)
- Bliss excess [1]: 0.0084
- Bliss excess (SF268 (Low Grade Glioma)): -0.0667
- Bliss excess [2]: 0.0437
- Bliss excess [3]: -0.0208
- Bliss excess [4]: 0.0027
- Bliss excess [5]: -0.0168
- Bliss excess [6]: -0.0125
- Bliss excess [7]: -0.0591
- Bliss excess [8]: -0.024
- Bliss excess [9]: -0.017
- Bliss excess [10]: -0.0168
- Bliss excess (A2058 (Melanoma)): 0.0072
- Bliss excess [11]: 0.0856
- Bliss excess [12]: -0.0303
- Bliss excess [13]: -0.0309
- Bliss excess [14]: -0.0406
- Bliss excess (WM278 (Melanoma)): -0.065
- Bliss excess (WM793B (Melanoma)): 0.002
- Bliss excess [15]: -0.0021
- Bliss excess [16]: -0.0385

Structure (SMILES): NC1(C(=O)N[C@@H](CCO)c2ccc(Cl)cc2)CCN(c2ncnc3[nH]ccc23)CC1 [Capivasertib] + COc1nnc2ccc(N3CCC(c4ccc(OCCN5CCN(C)C(=O)[C@H]5C)cc4)CC3)nn12 [AZD5153] (first compound max 10 µM, 7x7, partner max 1 µM)
- Bliss excess [1]: -0.045
- Bliss excess (SF268 (Low Grade Glioma)): 0.0881
- Bliss excess [2]: -0.0078
- Bliss excess [3]: -0.0995
- Bliss excess [4]: -0.0129
- Bliss excess [5]: -0.0186
- Bliss excess [6]: 0.032
- Bliss excess [7]: 0.0272
- Bliss excess [8]: -0.0938
- Bliss excess [9]: -0.0003
- Bliss excess [10]: 0.0021
- Bliss excess (A2058 (Melanoma)): 0.0597
- Bliss excess [11]: 0.0995
- Bliss excess [12]: 0.0566
- Bliss excess [13]: -0.0448
- Bliss excess [14]: -0.0718
- Bliss excess (WM278 (Melanoma)): 0.0078
- Bliss excess (WM793B (Melanoma)): -0.0115
- Bliss excess [15]: 0.0306
- Bliss excess [16]: 0.0026

Structure (SMILES): NC1(C(=O)N[C@@H](CCO)c2ccc(Cl)cc2)CCN(c2ncnc3[nH]ccc23)CC1 [Capivasertib] + C[C@@H]1COCCN1C2=NC(=NC(=C2)C3(CC3)[S@](=N)(=O)C)C4=C5C=CNC5=NC=C4 [AZD6738] (first compound max 10 µM, 7x7, partner max 10 µM)
- Bliss excess [1]: -0.0061
- Bliss excess (SF268 (Low Grade Glioma)): -0.0617
- Bliss excess [2]: -0.0306
- Bliss excess [3]: -0.0078
- Bliss excess [4]: -0.0746
- Bliss excess [5]: -0.0356
- Bliss excess [6]: 0.0096
- Bliss excess [7]: -0.0859
- Bliss excess [8]: -0.0645
- Bliss excess [9]: -0.0412
- Bliss excess [10]: -0.0166
- Bliss excess (A2058 (Melanoma)): -0.0262
- Bliss excess [11]: -0.0889
- Bliss excess [12]: -0.0189
- Bliss excess [13]: -0.0084
- Bliss excess [14]: -0.0784
- Bliss excess (WM278 (Melanoma)): -0.0637
- Bliss excess (WM793B (Melanoma)): -0.0919
- Bliss excess [15]: -0.0104
- Bliss excess [16]: -0.0471

Structure (SMILES): NC1(C(=O)N[C@@H](CCO)c2ccc(Cl)cc2)CCN(c2ncnc3[nH]ccc23)CC1 [Capivasertib] + Cn1cnc2c(F)c(Nc3ccc(Br)cc3Cl)c(C(=O)NOCCO)cc21 [Selumetinib] (first compound max 10 µM, 7x7, partner max 10 µM)
- Bliss excess [1]: 0.0803
- Bliss excess (SF268 (Low Grade Glioma)): -0.0651
- Bliss excess [2]: 0.0695
- Bliss excess [3]: -0.0045
- Bliss excess [4]: 0.0515
- Bliss excess [5]: 0.0268
- Bliss excess [6]: -0.0297
- Bliss excess [7]: -0.005
- Bliss excess [8]: 0.0433
- Bliss excess [9]: 0.032
- Bliss excess [10]: 0.0534
- Bliss excess (A2058 (Melanoma)): 0.108
- Bliss excess [11]: 0.0075
- Bliss excess [12]: 0.0313
- Bliss excess [13]: -0.0255
- Bliss excess [14]: -0.0324
- Bliss excess (WM278 (Melanoma)): 0.0221
- Bliss excess (WM793B (Melanoma)): 0.0402
- Bliss excess [15]: 0.0387
- Bliss excess [16]: -0.0255

Structure (SMILES): Cc1nc(Nc2ncc(C(=O)Nc3c(C)cccc3Cl)s2)cc(N2CCN(CCO)CC2)n1 [Dasatinib] + CC(=O)Nc1cccc(-n2c(=O)n(C3CC3)c(=O)c3c(Nc4ccc(I)cc4F)n(C)c(=O)c(C)c32)c1 [Trametinib] (first compound max 2 µM, 7x7, partner max 1 µM)
- Bliss excess [1]: -0.0125
- Bliss excess (SF268 (Low Grade Glioma)): -0.073
- Bliss excess [2]: 0.163
- Bliss excess [3]: -0.0238
- Bliss excess [4]: 0.0108
- Bliss excess [5]: -0.0708
- Bliss excess [6]: -0.0972
- Bliss excess [7]: -0.0421
- Bliss excess [8]: 0.008
- Bliss excess [9]: -0.0292
- Bliss excess [10]: 0.112
- Bliss excess (A2058 (Melanoma)): 0.005
- Bliss excess [11]: -0.0439
- Bliss excess [12]: 0.0113
- Bliss excess [13]: 0.0121
- Bliss excess [14]: -0.0436
- Bliss excess (WM278 (Melanoma)): 0.162
- Bliss excess (WM793B (Melanoma)): -0.0015
- Bliss excess [15]: 0.0847
- Bliss excess [16]: -0.0298
